Data taken from US8193384B2, “Polymer-bound phosphitylating reagents for the synthesis of organophosphorus compounds” (priority 2005, dated 2012).

Tests used:
[1] = test system: complementary chains of modified and unmodified ODNs; experiment: Thermal denaturation studies (UV melting, Tm) of ODN duplexes; assay type: binding; details: for Tm: modified oligomer bound to its complementary unmodified oligomer
[2] = test system: mismatched 12-mer modified or unmodified ODNs of 3′-d(CCCCCCCCCCCC); experiment: Base-discriminating properties: UV melting with mismatched ODNs; assay type: binding; details: with mismatched 12-mer modified or unmodified 3′-d(CCCCCCCCCCCC)

Substance	Tm [1] [°C]	ΔTm [1]	other results
Modified d(AAAAAAAAAAAA) (SEQ ID NO: 1) Containing Diphosphodiester Internucleotide Linkage (DNA, backbone not given here; contains diphosphodiester internucleotide linkage(s), further chemistry not fully specified) [Compound 13]	39.7		melting transition [2]: no melting transition was observed
Modified d(ATATATATATAT) (SEQ ID NO: 5) Containing Diphosphodiester Internucleotide Linkage (DNA, backbone not given here; contains a diphosphodiester internucleotide linkage) [Compound 17]		+1.8 °C	
Modified d(GGGGGGGGGGGG) (SEQ ID NO: 4) Containing Diphosphodiester Internucleotide Linkage [Compound 16]			binding affinity towards modified 3′-d(CCCCCCCCCCCC) compared with unmodified 3′-d(CCCCCCCCCCCC) [1]: higher binding affinity
Modified d(TATATATATATA) (SEQ ID NO: 6) Containing Diphosphodiester Internucleotide Linkage (DNA, backbone not given here; contains a diphosphodiester internucleotide linkage) [Compound 18]		+3.2 °C	
Modified d(TTTTTTTTTTTT) (SEQ ID NO: 2) Containing Diphosphodiester Internucleotide Linkage (diphosphodiester internucleotide linkage) [Compound 14]	39.5		
